Measured values as given in PubChem BioAssay (NCI).
Values joined by “and” are separate entries in the source; they are usually repeats but may differ in a detail not shown here. Identical values can stand only once.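 Where inhibition never reached the appropriate level, the endpoint shown equals the highest concentration tested. Otherwise, values were interpolated linearly from a five-concentration, 48-hour dose response in 96-well plates. Abbreviation: GI50, concentration required for 50% inhibition of growth. TGI is the concentration that stops growth completely.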

Assays:
Test in all cases: NCI anticancer screen, dose series, 48 h
CAKI-1 renal = test system: CAKI-1 renal
COLO 205 colon = test system: COLO 205 colon
HCT-116 colon = test system: HCT-116 colon
MALME-3M melanoma = test system: MALME-3M melanoma
MDA-MB-435 = test system: MDA-MB-435
OVCAR-3 ovarian = test system: OVCAR-3 ovarian
SF-295 CNS = test system: SF-295 CNS
SK-MEL-2 melanoma = test system: SK-MEL-2 melanoma
SN12C renal = test system: SN12C renal
SR leukemia = test system: SR leukemia

Compound | TGI (CAKI-1 renal) | TGI (COLO 205 colon) | TGI (HCT-116 colon) | TGI (MALME-3M melanoma) | TGI (MDA-MB-435) | TGI (OVCAR-3 ovarian) | TGI (SF-295 CNS) | TGI (SK-MEL-2 melanoma) | TGI (SN12C renal) | TGI (SR leukemia) | GI50 (CAKI-1 renal) | GI50 (COLO 205 colon) | GI50 (HCT-116 colon) | GI50 (MALME-3M melanoma) | GI50 (MDA-MB-435) | GI50 (SF-295 CNS) | GI50 (SK-MEL-2 melanoma)
Clc1sc(Cl)c2c1[C@H](Br)C[C@@H]2Cl | 64.2 µM | 44.3 µM | 65.9 µM | 49.4 µM | 40.8 µM | 64.9 µM | > 100 µM | > 100 µM | 85.3 µM | 39.5 µM | – | – | – | – | – | – | –
O=C1C=CC(=O)c2c(O)c(N3CCN(c4ncccn4)CC3)c(Cl)c(O)c21 | 4.4 µM | 3.36 µM | 3.14 µM | 3.63 µM | 3.29 µM | 3.16 µM | 25.5 µM | 3.47 µM | 3.43 µM | 37.8 µM | – | – | – | – | – | – | –
O=c1[nH]nc(-c2ccc([N+](=O)[O-])cc2)[nH]1 | > 100 µM | > 100 µM | > 100 µM | > 100 µM | > 100 µM | > 100 µM | > 100 µM | > 100 µM | > 100 µM | > 100 µM | – | – | – | – | – | – | –
CCCCCc1cc(CCCC)sc1-c1ccco1 | > 100 µM | > 100 µM | > 73 µM | > 100 µM | > 100 µM | > 100 µM | > 100 µM | > 100 µM | > 100 µM | > 100 µM | – | – | – | – | – | – | –
C[N+]1(CCCCN2c3ccccc3Sc3cc(N=[N+]=[N-])ccc32)CCN(C(=O)CCNC(=O)Cc2ccc(C(=O)c3ccccc3)cc2)CC1 | 57.5 µM | 34.9 µM | > 75.4 µM | 70.8 µM | > 67.7 µM | 89.2 µM | 45.5 µM | > 79.4 µM | 53.5 µM | 65.5 µM | – | – | – | – | – | – | –
O=C(O)C12C3C4(C(=O)O)C1C1(C(=O)O)C2C3(C(=O)O)C41 (configuration not stated) | > 100 µM | > 100 µM | > 100 µM | > 100 µM | > 100 µM | > 100 µM | > 100 µM | > 100 µM | > 100 µM | > 100 µM | – | – | – | – | – | – | –
COC(=O)Cc1c2n(c3ccccc13)C(=O)N1c3ccccc3C(CC(=O)OC)C21 (configuration not stated) | > 100 µM | > 100 µM | > 100 µM | > 100 µM | > 100 µM | > 100 µM | 68.2 µM | > 100 µM | > 100 µM | > 100 µM | – | – | – | – | – | – | –
O=C1c2c(Br)sc(Br)c2[C@H]2OC(=S)N[C@@H]12 | 7.81 µM | 5.58 µM | 7.6 µM | 10.4 µM | 8.65 µM | 7.26 µM | 30.1 µM | 29 µM | 8.7 µM | 5.19 µM | – | – | – | – | – | – | –
CC(Br)CN(CC(C)Br)c1ccc2c(c1)Cc1ccccc1-2 (configuration not stated) | 21.1 µM | 27.5 µM | 23.8 µM | 24.9 µM | 28 µM | 24 µM | 22.6 µM | 29.6 µM | 26.7 µM | 14.9 µM | – | – | – | – | – | – | –
COC(=O)c1ccc2cc(O)ccc2c1 | > 100 µM | > 100 µM | > 100 µM | > 100 µM | > 100 µM | > 100 µM | > 100 µM | > 100 µM | > 100 µM | 81.9 µM | – | – | – | – | – | – | –
Brc1ccc(/C(N=N/C(=N\Sc2ccccc2)c2ccc(Br)cc2)=N/Sc2ccccc2)cc1 | > 100 µM | > 100 µM | > 100 µM | > 100 µM | > 100 µM | > 100 µM | > 100 µM | > 100 µM | > 100 µM | > 100 µM | – | – | – | – | – | – | –
O=C1CCC(CCc2nc3ccccc3[nH]2)(c2ccccc2)C(=O)N1 (configuration not stated) | > 100 µM | > 100 µM | > 100 µM | > 100 µM | > 100 µM | > 100 µM | > 100 µM | > 100 µM | > 100 µM | > 100 µM | – | – | – | – | – | – | –
O=C(CCl)Nc1ccc(C(=O)N/N=C/c2ccc(Cl)cc2)cc1 | 4.39 µM and 3.35 µM | 4.05 µM and 1.44 µM | 3.18 µM and 3.7 µM | 3.63 µM and 14.2 µM | 3.27 µM and 21.7 µM | 3.42 µM and 3.6 µM | 3.1 µM and 9.23 µM | 4.14 µM and 14.7 µM | 9.71 µM and 7.07 µM | 3.93 µM | 1.87 µM | 2.01 µM | 1.57 µM | 3.79 µM | 9.67 µM | 1.65 µM | 2.28 µM
COc1ccccc1Cn1c2c(c3cc(O)ccc31)C(=O)c1ccccc1C2=O | 69.7 µM | > 100 µM | > 100 µM | > 100 µM | > 100 µM | > 100 µM | 42.2 µM | > 100 µM | > 100 µM | > 100 µM | – | – | – | – | – | – | –
COc1cc2c3cc1Oc1cc(ccc1O)C[C@@H]1c4c(cc(OC)c(O)c4Oc4ccc(cc4)C[C@@H]3[N+](C)(C)CC2)CC[N+]1(C)C | > 100 µM | > 100 µM | > 100 µM | 74.4 µM | > 100 µM | > 100 µM | 50.5 µM | > 100 µM | > 100 µM | > 100 µM | – | – | – | – | – | – | –
CC1CCc2sc3[nH]c(=S)n(C)c(=O)c3c2C1 (configuration not stated) | > 100 µM | > 100 µM | > 100 µM | > 100 µM | > 100 µM | 62.4 µM | > 100 µM | > 100 µM | > 100 µM | > 100 µM | – | – | – | – | – | – | –
C=CCN(c1cc(OC)c2[nH]c(C(=O)O)c(C)c2c1[N+](=O)[O-])S(C)(=O)=O | > 100 µM | > 100 µM | > 100 µM | 52.3 µM | > 100 µM | > 100 µM | > 100 µM | > 100 µM | > 100 µM | > 100 µM | – | – | – | – | – | – | –
O=C1CCCC2=C1CC1=C(CCCC1=O)N2c1ccc(-c2ccccc2)cc1 | > 100 µM | > 100 µM | > 100 µM | > 100 µM | > 100 µM | > 100 µM | > 100 µM | > 100 µM | > 100 µM | > 100 µM | – | – | – | – | – | – | –
O=C(O[C@@H](/C=C/c1ccccc1)P1(=O)N(Cc2ccccc2)[C@@H]2CCCC[C@H]2N1Cc1ccccc1)c1ccccc1 | 4.41 µM | 4.55 µM | > 100 µM | > 100 µM | 68.7 µM | > 100 µM | > 100 µM | 5.42 µM | 40.8 µM | > 100 µM | – | – | – | – | – | – | –
